Laboratory results published in US6534447B1, “Herbicidal pyridine compounds” (BASF Aktiengesellschaft, priority 1999, dated 2003).

Key:
Format in all cases: in vivo
[1] = tested on: Abutilon theophrasti (ABUTH, velvetleaf); assay: Pre-emergence herbicidal evaluation; conditions: 3 weeks after treatment
From the text: (§1) The pre-emergence herbicidal activity of the compounds of the present invention is exemplified by the following test in which the seeds of a variety of monocotyledonous and dicotyledonous plants are seperately mixed with potting soil and planted on top of approximately one inch of soil in separate post. After planting, the pots are sprayed with the selected aqueous acetone solution. containing test compound in sufficient quantity to provide the equivalent of about 0.025 to 0.4 kg per hectare of test compound per pot. The treated pots are then placed on greenhouse benches, watered and cared for in accordance with conventional greenhouse procedures. From 3 weeks after treatment, the tests are terminated and each pot is examined and rated according to the rating system set forth below. [table] [table]

[2] = tested on: Alopecurus myosuroides (ALOMY, black grass); assay: Pre-emergence herbicidal evaluation; conditions: 3 weeks after treatment
From the text: as §1

[3] = tested on: Echinochloa grus galli (ECHCG, barnyard grass); assay: Pre-emergence herbicidal evaluation; conditions: 3 weeks after treatment
From the text: as §1

[4] = tested on: Galium aparine (GALAP, cleaver); assay: Pre-emergence herbicidal evaluation; conditions: 3 weeks after treatment
From the text: as §1

[5] = tested on: Ipomoea hederacea (IPOHE, morning glory); assay: Pre-emergence herbicidal evaluation; conditions: 3 weeks after treatment
From the text: as §1

[6] = tested on: Matricaria inodora (MATIN, mayweed); assay: Pre-emergence herbicidal evaluation; conditions: 3 weeks after treatment
From the text: as §1

[7] = tested on: Setaria viridis (SETVI, green foxtail); assay: Pre-emergence herbicidal evaluation; conditions: 3 weeks after treatment
From the text: as §1

[8] = tested on: Stellaria media (STEME, chickweed); assay: Pre-emergence herbicidal evaluation; conditions: 3 weeks after treatment
From the text: as §1

[9] = tested on: Glycine max (GLXMA, soyabeans); assay: Pre-emergence herbicidal evaluation (crop); conditions: 3 weeks after treatment
From the text: as §1

[10] = tested on: Triticum aestivum (TRZAW, winter wheat); assay: Pre-emergence herbicidal evaluation (crop); conditions: 3 weeks after treatment
From the text: as §1

Zea mays (ZEAMX, maize) = assay: Pre-emergence herbicidal evaluation (crop); conditions: 3 weeks after treatment
From the text: as §1

[11] = tested on: Abutilon theophrasti (ABUTH, velvetleaf); assay: Post-emergence herbicidal evaluation; conditions: 3 weeks after treatment
Method: (§2) These acetone solutions are diluted with water and the resulting formulations applied at dosage levels equivalent of about 0.025 to 0.4 kg per hectare of test compound per pot. After spraying the plants are placed on greenhouse benches and are cared for in the usual manner, commensurate with conventional greenhouse practices. From 3 weeks after treatment, the seedling plants are examined and rated according to the rating system provided above. A rating 0 indicates growth as untreated control, a rating 9 indicates death.

[12] = tested on: Alopecurus myosuroides (ALOMY, black grass); assay: Post-emergence herbicidal evaluation; conditions: 3 weeks after treatment
Method: as §2

[13] = tested on: Dolium multiflorum (LOLMU, ryegrass); assay: Post-emergence herbicidal evaluation; conditions: rate 0.100 kg/ha, 3 weeks after treatment
Method: as §2

[14] = tested on: Echinochloa grus galli (ECHCG, barnyard grass); assay: Post-emergence herbicidal evaluation; conditions: 3 weeks after treatment
Method: as §2

[15] = tested on: Galium aparine (GALAP, cleaver); assay: Post-emergence herbicidal evaluation; conditions: 3 weeks after treatment
Method: as §2

[16] = tested on: Ipomoea hederacea (IPOHE, morning glory); assay: Post-emergence herbicidal evaluation; conditions: 3 weeks after treatment
Method: as §2

[17] = tested on: Matricaria inodora (MATIN, mayweed); assay: Post-emergence herbicidal evaluation; conditions: 3 weeks after treatment
Method: as §2

[18] = tested on: Setaria viridis (SETVI, green foxtail); assay: Post-emergence herbicidal evaluation; conditions: 3 weeks after treatment
Method: as §2

[19] = tested on: Stellaria media (STEME, chickweed); assay: Post-emergence herbicidal evaluation; conditions: 3 weeks after treatment
Method: as §2

**Q.** What does the source list for Cc1cc(OCCC(Cl)SC(F)(F)F)nc(Oc2cc(C(F)(F)F)nn2C)c1 (stereo not shown) [Example 3, 2-(1-Methyl-3-trifluoromethylpyrazol-5-yloxy)-4-methyl-6-(3-chloro-3-trifluoromethylthiopropyloxy)pyridine]?
**A.** ABUTH rating ([1]; rate 0.025 kg/ha): 5 (5 - Definite injury); ABUTH rating ([1]; rate 0.100 kg/ha): 5 (5 - Definite injury); ABUTH rating ([1]; rate 0.400 kg/ha): 7 (7 - Good herbicidal effect); ALOMY rating ([2]; rate 0.025 kg/ha): 5 (5 - Definite injury); ALOMY rating ([2]; rate 0.100 kg/ha): 8 (8 - Approaching complete kill); ALOMY rating ([2]; rate 0.400 kg/ha): 8 (8 - Approaching complete kill); ECHCG rating ([3]; rate 0.025 kg/ha): 4 (4 - Injury); ECHCG rating ([3]; rate 0.100 kg/ha): 6 (6 - Herbicidal effect); ECHCG rating ([3]; rate 0.400 kg/ha): 8 (8 - Approaching complete kill); GALAP rating ([4]; rate 0.025 kg/ha): 2 (2 - Slight effect); GALAP rating ([4]; rate 0.100 kg/ha): 7 (7 - Good herbicidal effect); GALAP rating ([4]; rate 0.400 kg/ha): 7 (7 - Good herbicidal effect); IPOHE rating ([5]; rate 0.025 kg/ha): 7 (7 - Good herbicidal effect); IPOHE rating ([5]; rate 0.100 kg/ha): 9 (9 - Complete kill); IPOHE rating ([5]; rate 0.400 kg/ha): 9 (9 - Complete kill); MATIN rating ([6]; rate 0.025 kg/ha): 8 (8 - Approaching complete kill); MATIN rating ([6]; rate 0.100 kg/ha): 9 (9 - Complete kill); MATIN rating ([6]; rate 0.400 kg/ha): 9 (9 - Complete kill); SETVI rating ([7]; rate 0.025 kg/ha): 8 (8 - Approaching complete kill); SETVI rating ([7]; rate 0.100 kg/ha): 9 (9 - Complete kill); SETVI rating ([7]; rate 0.400 kg/ha): 9 (9 - Complete kill); STEME rating ([8]; rate 0.025 kg/ha): 9 (9 - Complete kill); STEME rating ([8]; rate 0.100 kg/ha): 9 (9 - Complete kill); STEME rating ([8]; rate 0.400 kg/ha): 9 (9 - Complete kill); GLXMA rating ([9]; rate 0.025 kg/ha): 1 (1 - Trace effect); GLXMA rating ([9]; rate 0.100 kg/ha): 1 (1 - Trace effect); GLXMA rating ([9]; rate 0.400 kg/ha): 2 (2 - Slight effect); TRZAW rating ([10]; rate 0.025 kg/ha): 1 (1 - Trace effect); TRZAW rating ([10]; rate 0.100 kg/ha): 2 (2 - Slight effect); TRZAW rating ([10]; rate 0.400 kg/ha): 3 (3 - Moderate effect); ZEAMX rating (Zea mays (ZEAMX, maize); rate 0.025 kg/ha): 2 (2 - Slight effect); ZEAMX rating (Zea mays (ZEAMX, maize); rate 0.100 kg/ha): 2 (2 - Slight effect); ZEAMX rating (Zea mays (ZEAMX, maize); rate 0.400 kg/ha): 3 (3 - Moderate effect); ABUTH rating ([11]; rate 0.025 kg/ha): 5 (5 - Definite injury); ABUTH rating ([11]; rate 0.100 kg/ha): 7 (7 - Good herbicidal effect); ABUTH rating ([11]; rate 0.400 kg/ha): 7 (7 - Good herbicidal effect); ALOMY rating ([12]; rate 0.025 kg/ha): 5 (5 - Definite injury); ALOMY rating ([12]; rate 0.100 kg/ha): 7 (7 - Good herbicidal effect); ALOMY rating ([12]; rate 0.400 kg/ha): 7 (7 - Good herbicidal effect); LOLMU rating [13]: 8 (8 - Approaching complete kill); ECHCG rating ([14]; rate 0.025 kg/ha): 6 (6 - Herbicidal effect); ECHCG rating ([14]; rate 0.100 kg/ha): 8 (8 - Approaching complete kill); ECHCG rating ([14]; rate 0.400 kg/ha): 9 (9 - Complete kill); GALAP rating ([15]; rate 0.025 kg/ha): 8 (8 - Approaching complete kill); GALAP rating ([15]; rate 0.100 kg/ha): 8 (8 - Approaching complete kill); GALAP rating ([15]; rate 0.400 kg/ha): 8 (8 - Approaching complete kill); IPOHE rating ([16]; rate 0.025 kg/ha): 9 (9 - Complete kill); IPOHE rating ([16]; rate 0.100 kg/ha): 9 (9 - Complete kill); IPOHE rating ([16]; rate 0.400 kg/ha): 9 (9 - Complete kill); MATIN rating ([17]; rate 0.025 kg/ha): 5 (5 - Definite injury); MATIN rating ([17]; rate 0.100 kg/ha): 6 (6 - Herbicidal effect); MATIN rating ([17]; rate 0.400 kg/ha): 7 (7 - Good herbicidal effect); SETVI rating ([18]; rate 0.025 kg/ha): 8 (8 - Approaching complete kill); SETVI rating ([18]; rate 0.100 kg/ha): 9 (9 - Complete kill); SETVI rating ([18]; rate 0.400 kg/ha): 9 (9 - Complete kill); STEME rating ([19]; rate 0.025 kg/ha): 4 (4 - Injury); STEME rating ([19]; rate 0.100 kg/ha): 5 (5 - Definite injury); STEME rating ([19]; rate 0.400 kg/ha): 6 (6 - Herbicidal effect)

**Q.** What does the source list for Cc1cc(OCC=CSC(F)(F)F)nc(Oc2cc(C(F)(F)F)nn2C)c1 [Example 2, 2-(1-Methyl-3-trifluoromethylpyrazol-5-yloxy)-4-methyl-6-(3-trifluoromethylthioprop-2-enyloxy)pyridine]?
**A.** ABUTH rating ([1]; rate 0.025 kg/ha): 3 (3 - Moderate effect); ABUTH rating ([1]; rate 0.100 kg/ha): 7 (7 - Good herbicidal effect); ABUTH rating ([1]; rate 0.400 kg/ha): 8 (8 - Approaching complete kill); ALOMY rating ([2]; rate 0.025 kg/ha): 8 (8 - Approaching complete kill); ALOMY rating ([2]; rate 0.100 kg/ha): 8 (8 - Approaching complete kill); ALOMY rating ([2]; rate 0.400 kg/ha): 8 (8 - Approaching complete kill); ECHCG rating ([3]; rate 0.025 kg/ha): 7 (7 - Good herbicidal effect); ECHCG rating ([3]; rate 0.100 kg/ha): 8 (8 - Approaching complete kill); ECHCG rating ([3]; rate 0.400 kg/ha): 8 (8 - Approaching complete kill); GALAP rating ([4]; rate 0.025 kg/ha): 7 (7 - Good herbicidal effect); GALAP rating ([4]; rate 0.400 kg/ha): 8 (8 - Approaching complete kill); IPOHE rating ([5]; rate 0.025 kg/ha): 5 (5 - Definite injury); IPOHE rating ([5]; rate 0.100 kg/ha): 5 (5 - Definite injury); IPOHE rating ([5]; rate 0.400 kg/ha): 8 (8 - Approaching complete kill); MATIN rating ([6]; rate 0.025 kg/ha): 8 (8 - Approaching complete kill); MATIN rating ([6]; rate 0.100 kg/ha): 8 (8 - Approaching complete kill); MATIN rating ([6]; rate 0.400 kg/ha): 9 (9 - Complete kill); SETVI rating ([7]; rate 0.025 kg/ha): 9 (9 - Complete kill); SETVI rating ([7]; rate 0.100 kg/ha): 9 (9 - Complete kill); SETVI rating ([7]; rate 0.400 kg/ha): 9 (9 - Complete kill); STEME rating ([8]; rate 0.025 kg/ha): 9 (9 - Complete kill); STEME rating ([8]; rate 0.100 kg/ha): 9 (9 - Complete kill); STEME rating ([8]; rate 0.400 kg/ha): 9 (9 - Complete kill); GLXMA rating ([9]; rate 0.025 kg/ha): 0 (0 - No effect); GLXMA rating ([9]; rate 0.100 kg/ha): 2 (2 - Slight effect); GLXMA rating ([9]; rate 0.400 kg/ha): 4 (4 - Injury); TRZAW rating ([10]; rate 0.025 kg/ha): 2 (2 - Slight effect); TRZAW rating ([10]; rate 0.100 kg/ha): 3 (3 - Moderate effect); TRZAW rating ([10]; rate 0.400 kg/ha): 5 (5 - Definite injury); ZEAMX rating (Zea mays (ZEAMX, maize); rate 0.025 kg/ha): 4 (4 - Injury); ZEAMX rating (Zea mays (ZEAMX, maize); rate 0.100 kg/ha): 5 (5 - Definite injury); ZEAMX rating (Zea mays (ZEAMX, maize); rate 0.400 kg/ha): 5 (5 - Definite injury); ABUTH rating ([11]; rate 0.025 kg/ha): 6 (6 - Herbicidal effect); ABUTH rating ([11]; rate 0.100 kg/ha): 7 (7 - Good herbicidal effect); ABUTH rating ([11]; rate 0.400 kg/ha): 7 (7 - Good herbicidal effect); ALOMY rating ([12]; rate 0.025 kg/ha): 7 (7 - Good herbicidal effect); ALOMY rating ([12]; rate 0.100 kg/ha): 7 (7 - Good herbicidal effect); ALOMY rating ([12]; rate 0.400 kg/ha): 7 (7 - Good herbicidal effect); LOLMU rating [13]: 8 (8 - Approaching complete kill); ECHCG rating ([14]; rate 0.025 kg/ha): 8 (8 - Approaching complete kill); ECHCG rating ([14]; rate 0.100 kg/ha): 8 (8 - Approaching complete kill); ECHCG rating ([14]; rate 0.400 kg/ha): 8 (8 - Approaching complete kill); GALAP rating ([15]; rate 0.025 kg/ha): 6 (6 - Herbicidal effect); GALAP rating ([15]; rate 0.100 kg/ha): 7 (7 - Good herbicidal effect); GALAP rating ([15]; rate 0.400 kg/ha): 7 (7 - Good herbicidal effect); IPOHE rating ([16]; rate 0.025 kg/ha): 8 (8 - Approaching complete kill); IPOHE rating ([16]; rate 0.100 kg/ha): 9 (9 - Complete kill); IPOHE rating ([16]; rate 0.400 kg/ha): 9 (9 - Complete kill); MATIN rating ([17]; rate 0.025 kg/ha): 6 (6 - Herbicidal effect); MATIN rating ([17]; rate 0.100 kg/ha): 6 (6 - Herbicidal effect); MATIN rating ([17]; rate 0.400 kg/ha): 6 (6 - Herbicidal effect); SETVI rating ([18]; rate 0.025 kg/ha): 7 (7 - Good herbicidal effect); SETVI rating ([18]; rate 0.100 kg/ha): 8 (8 - Approaching complete kill); SETVI rating ([18]; rate 0.400 kg/ha): 8 (8 - Approaching complete kill); STEME rating ([19]; rate 0.025 kg/ha): 4 (4 - Injury); STEME rating ([19]; rate 0.100 kg/ha): 5 (5 - Definite injury); STEME rating ([19]; rate 0.400 kg/ha): 5 (5 - Definite injury)
